# Measured values from publication PMC6290023 (Scientific Reports, 2018).
# Peptide text beside a SMILES is read from it.
# Tests used:
# tPA-induced hemorrhage = type: in vivo; conditions: mouse tMCAo, MHP1-AcN 150 µg/mice combined with tPA 10 mg/kg after reperfusion at 6 h; 24 h after ischemia
# Procedure: The ischemic damage was evaluated at 48 h after MCAo in sections stained with cresyl violet. Coronal sections (12 μm thickness) were made at −1.4, −0.7, 0, 0.7 and 1.4 mm from the bregma, mounted on the stereomicroscope and photographed. The volume of the infarct was calculated by the sum of each area of all sections corrected by cerebral edema and multiplied by the thickness of the slices. In the experiment of tPA-induced hemorrhage, PE10-catheter was placed in the right internal jugular vein at 6 h after ischemia. The nylon suture was then removed and 10% of the MHP-AcN mixture (150 µg/mice) and tPA (10 mg/kg) were injected followed by continuous injection of residual mixture of MHP1-AcN and tPA using a syringe pump (UNIVENTOR 400 ANAESTHESIA UNIT, ZTN, MALTA). In the experiment of FeCl3 -induced thrombosis model in CCA, a piece of filter paper soaked in 7.5% FeCl3 was placed on the right CCA for 1 min and it was rinsed with saline. Blood flow was recorded by using a laser speckle blood flow imager (OMEGAZONE OZ-2, OMEGAWAVE, INC., Tokyo, Japan). tPA (10 mg/kg) or mixture of MHP1-AcN (150 μg/mice) and tPA was started to be administered at 30 min after CCA occlusion.
# [1] = tested on: mouse osteoclast precursor cells; assay: Osteoclast differentiation of mouse osteoclast precursor cells (TRAP-positive large cells); type: cell-based; conditions: M-CSF 50 ng/ml, 5 days
# Procedure: Osteoclast differentiation was examined using a mouse osteoclast culture system obtained from Cosmo Bio Co. Ltd. (Tokyo, Japan). Mouse osteoclast precursor cells seeded in a 24-well plate were incubated with macrophage colony stimulating factor (50 ng/ml) and RANKL (50 ng/ml) with or without MHP1-AcN. After five days, osteoclast precursors stimulated with RANKL had fused with each other and became multinucleated TRAP-positive cells. Cells with more than ten nuclei were classified as large osteoclasts. The number of these cells in each group was counted with a phase contrast microscope (BZ-9000, Keyence, Tokyo) using BZII analyzer software (v1.42; Keyence, Tokyo).
# LPS-stimulated MG6 cells = assay: LDH assay in LPS-stimulated MG6 cells; type: cell-based, mouse
# [2] = Dissolution in water and sedimentation in 0.45% saline at 37 °C for 24 h; type: physicochemical; conditions: for sedimentation after incubation in 0.45% saline: 37 °C, 24 h, visual
# Procedure: Synthetic MHP1 (NH2-[…]-COOH), MHP1-DN1 (NH2-LMVYVV-DLys-[…]-COOH), MHP1-DN2 (NH2-LMV-DTyr-[…]-COOH), MHP1-DN3 (NH2-L-DMet-[…]-COOH), MHP1-DC (NH2-LMVYVVKTSIKIPSSHNL-DMet-KGGSTKNWSGN-COOH), MHP1-Ac (Ac-[…]-COOH), MHP1-AcN (Ac-[…]-HN2), or MHP1-N (NH2-[…]-NH2) was purchased from ILS, Inc (Ibaraki, Tsukuba, Japan), dissolved in 1 or 2 mg/ml ddH2O and stored at 4 °C until use (Table 1).
smiles,measurement,setting,value
CC[C@H](C)[C@H](NC(=O)[C@H](CO)NC(=O)[C@@H](NC(=O)[C@H](CCCCN)NC(=O)[C@@H](NC(=O)[C@@H](NC(=O)[C@H](Cc1ccc(O)cc1)NC(=O)[C@@H](NC(=O)[C@H](CCSC)NC(=O)[C@H](CC(C)C)NC(C)=O)C(C)C)C(C)C)C(C)C)[C@@H](C)O)C(=O)N[C@@H](CCCCN)C(=O)N[C@H](C(=O)N1CCC[C@H]1C(=O)N[C@@H](CO)C(=O)N[C@@H](CO)C(=O)N[C@@H](Cc1c[nH]cn1)C(=O)N[C@@H](CC(N)=O)C(=O)N[C@@H](CC(C)C)C(=O)N[C@@H](CCSC)C(=O)N[C@@H](CCCCN)C(=O)NCC(=O)NCC(=O)N[C@@H](CO)C(=O)N[C@H](C(=O)N[C@@H](CCCCN)C(=O)N[C@@H](CC(N)=O)C(=O)N[C@@H](Cc1c[nH]c2ccccc12)C(=O)N[C@@H](CO)C(=O)NCC(=O)N[C@@H](CC(N)=O)C(N)=O)[C@@H](C)O)[C@@H](C)CC [MHP1-AcN] (Ac-LMVYVVKTSIKIPSSHNLMKGGSTKNWSGN-NH2),effect on tPA-induced hemorrhagic formation,tPA-induced hemorrhage,reduced formation of hemorrhage
same,effect on RANKL-induced osteoclast differentiation,[1]; RANKL 50 ng/ml,inhibited RANKL-induced osteoclast differentiation
same,effect on osteoclast differentiation (peptide alone),[1]; without RANKL,did not affect the osteoclast differentiation
same,cytotoxicity (LDH assay),LPS-stimulated MG6 cells,did not increase cytotoxicity
same,sedimentation after incubation in 0.45% saline,[2]; 1 mg/ml,sedimentation was not observed
same,sedimentation after incubation in 0.45% saline,[2]; 2 mg/ml,sedimentation was not observed
same,dissolution in water,[2]; water,easily dissolved in water
